Test results taken from ChEMBL document CHEMBL1144127, “Montadial A, a cytotoxic metabolite from Bondarzewia montana” (J Nat Prod, 1999).
The source made the active and inactive calls.

Key:
HL-60 = test: Cytotoxicity against human HL-60 cells at 5 ug/mL; format: functional, cell-based
L1210 = test: Cytotoxicity against mouse L1210 cells at 10 ug/mL; format: functional, cell-based
Setaria italica = test: Phytotoxicity against Setaria italica at 50 ug/disk; format: functional, organism-based

Measured: Activity

C/C(C=O)=C\Cc1cc(C=O)cc(O)c1O
active: all assays above
